Data: patent publication US7928078B2, “Conjugates of immune cell specific macrolide compounds with anti-inflammatory compounds for improved cellular targeting of anti-inflammatory therapy” (GlaxoSmithKline Istrazivacki Centar Zagreb D.O.O., priority 2001, dated 2011)

Legend:
[1] = tested on: OVA-induced lung eosinophilia; assay: Model of lung eosinophilia in mice; format: in vivo, Balb/C mice; conditions: daily i.n. or i.p., different doses, 48 hours after OVA, t-test, p<0.05
Method: Model of Lung Eosinophilia in Mice
Male Balb/C mice with a body weight of 20-25 g were randomly divided into groups. They were sensibilized by an i.p. injection of ovalbumine (OVA, Sigma) on zero day and on the fourteenth day. On the twentieth day the mice were subjected to a provocative test by i.n. application of OVA (positive control or test groups) or PBS (negative control). 48 hours after i.n. application of OVA, the animals were anesthetized and the lungs were rinsed with 1 ml of PBS. The cells were separated on Cytospin 3 cytocentrifuge (Shandon). The cells were stained in Diff-Quick (Dade) and the percentage of eozinophiles was determined by differential counting of at least 100 cells.
Fluticasone and beclomethasone were used as standard substances under positive and negative control.
The compounds were administered daily i.n. or i.p. in different doses 2 days before provocative test and up to the completion of the test.

[2] = tested on: mouse T-cell hybridoma 13; assay: Assay of inhibition of mouse T-cell hybridoma 13 proliferation as a result of apoptose induction; format: cell-based; conditions: [3H] thymidine incorporation
Method: Assay of Inhibition of Mouse T-Cell Hybridoma 13 Proliferation as a Result of Apoptose Induction
In a 96-well plate triplicates of test steroid dilution in RPMI medium (Immunoloski zavod) with […] were performed. To the solutions of compounds 20 000 cells per well were added and incubated overnight at 37° C. in an atmosphere with 5% CO2, then 1 μCi of [^3H] thymidine (Pharmacia) was added and it was incubated for additional 3 hours. The cells were harvested by sucking over GF/C filter (Packard). Onto each well 30 μl of Microscynt O scintillation liquid (Packard) were added and the incorporated radioactivity was measured on a β-scintillation counter (Packard). The specifity of apoptose induction by glucocorticoids was proven by antagonising the proliferation inhibition with mifepristone (Sigma).

[3] = molecular target: T1, alpha isoform of human glucocorticoid receptor (Homo sapiens, UniProt P04150); assay: Assay of binding to the human glucocorticoid receptor ([3H] dexamethasone competition in transfected COS-1 cells); conditions: 24 nM [3H] dexamethasone
T1 construct: expressed in transfected cells; host or cells: COS-1 cells, transient transfection with pcDNA3.1 hygro(+) carrying the GR alpha cDNA
T1 sequence (P04150 1-777): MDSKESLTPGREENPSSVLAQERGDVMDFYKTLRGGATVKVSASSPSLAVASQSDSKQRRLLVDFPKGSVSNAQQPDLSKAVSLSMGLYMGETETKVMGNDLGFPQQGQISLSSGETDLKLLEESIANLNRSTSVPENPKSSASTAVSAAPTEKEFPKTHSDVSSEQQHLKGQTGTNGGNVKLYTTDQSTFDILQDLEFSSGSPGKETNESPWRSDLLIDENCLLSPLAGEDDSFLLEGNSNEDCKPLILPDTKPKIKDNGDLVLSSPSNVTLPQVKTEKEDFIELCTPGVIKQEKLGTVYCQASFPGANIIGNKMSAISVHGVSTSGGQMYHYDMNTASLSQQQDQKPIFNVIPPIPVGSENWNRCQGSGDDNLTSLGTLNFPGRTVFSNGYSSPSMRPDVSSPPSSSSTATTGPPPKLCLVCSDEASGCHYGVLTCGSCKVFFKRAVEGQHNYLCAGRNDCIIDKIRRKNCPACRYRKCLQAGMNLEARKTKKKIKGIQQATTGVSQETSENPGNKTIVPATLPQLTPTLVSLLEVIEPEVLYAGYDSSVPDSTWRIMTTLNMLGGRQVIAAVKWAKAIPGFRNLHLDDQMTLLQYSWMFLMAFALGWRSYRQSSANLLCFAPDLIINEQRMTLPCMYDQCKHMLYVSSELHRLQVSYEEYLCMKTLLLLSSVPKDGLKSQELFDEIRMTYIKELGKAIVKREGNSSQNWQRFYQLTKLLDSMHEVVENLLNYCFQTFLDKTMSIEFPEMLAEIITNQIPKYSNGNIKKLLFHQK
Excerpt: Assay of Binding to the Human Glucocorticoid Receptor
The gene for alpha isoform of human glucocorticoid receptor was cloned by reverse polymerase chain reaction. The total RNA was isolated from human peripheral blood lymphocites according to the instructions of the manufacturer (Qiagen), transcripted into cDNA with AMV reverse transcriptase (Roche) and the gene was multiplied by specific primers
The obtained reaction product was cloned into XhoI/BamHI site of Bluescript KS plasmid (Stratagene), subjected to sequencing by dideoxy fluorescent method with M13 and M13 rev primers (Mycrosynth) and then it was cloned into XhoI/BamHI site of pcDNA3.1 hygro(+)plasmid (Invitrogen). 1×10^5 COS-1 cells were seeded onto a 12-well plate (Falcon) in DMEM medium (Life Technologies) with 10% FBS (Biowhitaker) and cultivated up to a 70% confluence at 37° C. in an atmosphere with 5% CO2. The medium was removed and 1 μg of DNA, 7 μl of PLUS reagent and 2 μl of Lipofectamine (Life Technologies) in 500 μl DMEM were added per well. The cells were incubated at 37° C. in an atmosphere with 5% CO2 and after 5 hours the same volume of 20% FBS/DMEM was added. After 24 hours the medium was completely changed. 48 hours after the transfection, the test compounds in different concentrations and 24 nM [^3H] dexamethasone (Pharmacia) in DMEM medium were added. The cells were incubated for 90 minutes at 37° C. in an atmosphere with 5% CO2, washed three times with PBS buffer (Sigma), cooled to 4° C. (pH=7.4) and then lyzed in Tris buffer (pH=8.0) (Sigma) with 0.2% SDS (Sigma). After the addition of UltimaGold XR (Packard) scintillation liquid, the residual radioactivity was read in a Tricarb (Packard) β-scintillation counter.

[4] = tested on: interleukin-2 production induced by the stimulation via CD3 receptor; assay: Assay of inhibition of interleukin-2 production; format: cell-based, mouse
Method: Assay of Inhibition of Interleukin-2 Production
Onto a 96-well plate (Nunc) 15 ng of 2C11 antibodies (Pharmingen) per well were added and left to adsorb in PBS buffer (pH=7.4) overnight at 4° C. PBS was removed, the plate was washed with RPMI medium and then 50,000 cells per well were added and incubated in the medium with and without a dilution of the test compounds. The concentration of IL-2 in the supernatant was measured by ELISA specific for mouse IL-2 (R&D Systems).

CHO and COS-1 cells = assay: Assay of steroid introduction into cells; format: cell-based; conditions: 1 μM radioactive compound, 90 minutes, 37° C.
Method: Assay of Steroid Introduction into Cells
CHO and COS-1 cells were cultivated up to confluence in 75 cm^2 flasks in Hamm F 12 medium (Life Technologies) with 10% FBS (CHO) or in DMEM medium with 10% FBS (COS-1). 1 μM of radioactive compound 10 with total 2 μCi activity was added onto the cells and it was incubated for 90 minutes at 37° C. in an atmosphere with 5% CO2. The cell supernatant was collected, the cells were lysed and then the radioactivity in the cell lysate as well as in the cell supernatant was read.

[5] = Influence of compounds on the thymus weight; conditions: rats, s.c. implanted impregnated pellets, 7 days
Excerpt: Influence of Compounds on the Thymus Weight
Male Sprague Dawley rats with a body weight of 200 g were randomly divided into groups of six animals. To anaesthetized animals sterilized weighed pellets of filter paper were implanted s.c. dorsally. The pellets in the control group were impregnated with acetone, whereas in the test groups they were impregnated either with the standard (prednisolone, Sigma) or with the compound 10. After 7 days the animals were put to sleep and their thymuses were isolated and weighed. The systemic effects were estimated by comparing the thymus weight in the test and control groups.

## CC[C@H]1OC(=O)[C@H](C)[C@@H](O[C@@H]2C[C@](C)(OC)[C@H](O)C(C)O2)[C@H](C)[C@@H](O[C@@H]2O[C@H](C)C[C@@H](N(C)C)[C@H]2O)[C@](C)(O)C[C@@H](C)CN(CCCNC(=O)[C@@]2(O)CCC3C4CCC5=CC(=O)CC[C@]5(C)C4[C@@H](O)C[C@@]32C)[C@H](C)[C@@H](O)[C@]1(C)O (stereo partly drawn) [Compound 8]
[1]
  number of eosinophiles in the lung rinse with regard to the positive control: statistically significantly (t-test, p<0.05) reduced
[2]
  inhibition of cell hybridoma 13 proliferation: demonstrated an inhibition
other
  melting point: 144 °C

## CC[C@H]1OC(=O)[C@H](C)[C@@H](O[C@@H]2C[C@](C)(OC)[C@H](O)C(C)O2)[C@H](C)[C@@H](O[C@@H]2O[C@H](C)C[C@@H](N(C)C)[C@H]2O)[C@](C)(O)C[C@@H](C)CN(CCCNC(=O)[C@@]2(O)[C@H](C)CC3C4C[C@H](F)C5=CC(=O)C=C[C@]5(C)[C@@]4(F)[C@@H](O)C[C@@]32C)[C@H](C)[C@@H](O)[C@]1(C)O (stereo partly drawn) [Compound 9]
[3]
  competition with radioactive dexamethasone in the binding site on the glucocorticoid receptor: able to compete with radioactive dexamethasone
[1]
  number of eosinophiles in the lung rinse with regard to the positive control: statistically significantly (t-test, p<0.05) reduced
[2]
  inhibition of cell hybridoma 13 proliferation: demonstrated an inhibition
[4]
  inhibition of interleukin-2 production: demonstrate an inhibition
other
  melting point: 169 °C

## CC[C@H]1OC(=O)[C@H](C)[C@@H](O[C@@H]2C[C@](C)(OC)[C@H](O)C(C)O2)[C@H](C)[C@@H](O[C@@H]2O[C@H](C)C[C@@H](N(C)C)[C@H]2O)[C@](C)(O)C[C@@H](C)CN(CCCNC(=O)[C@@]2(O)[C@H](C)CC3C4CCC5=CC(=O)C=C[C@]5(C)[C@@]4(F)[C@@H](O)C[C@@]32C)[C@H](C)[C@@H](O)[C@]1(C)O (stereo partly drawn) [Compound 10]
[3]
  competition with radioactive dexamethasone in the binding site on the glucocorticoid receptor: able to compete with radioactive dexamethasone
CHO and COS-1 cells
  accumulation in the cells versus cell supernatant: able to accumulate in the cells in a greater concentration than in the supernatant
[1]
  number of eosinophiles in the lung rinse with regard to the positive control: statistically significantly (t-test, p<0.05) reduced
[2]
  inhibition of cell hybridoma 13 proliferation: demonstrated an inhibition
[4]
  inhibition of interleukin-2 production: demonstrate an inhibition
other
  melting point: 170 to 175 °C

## C[C@]12C=CC(=O)C=C1CC[C@@H]1[C@@H]2[C@@H](O)C[C@@]2(C)[C@H]1CC[C@]2(O)C(=O)CO [standard, prednisolone]
[5]
  effect on thymus weights with regard to the control: statistically significantly reduced the thymus weights
